Measurements taken from US10857170B1, “Molecules, compositions and methods for modulation of SIRT6” (SirTLab Corporation, priority 2015, dated 2020).

molecular target: T1, Human recombinant SIRT6 (Homo sapiens, UniProt Q8N6T7); test: SIRT6 enzymatic activity assay (fluorogenic de-myristoylation of histone H3 peptide-AMC, trypsin-coupled); assay type: biochemical; details: Table 1; compound 20 uM; percentage of signal increase relative to control wells
T1 construct: six-histidine (His6); made in house; host or cells: Escherichia coli BL21
T1 sequence (Q8N6T7 whole entry): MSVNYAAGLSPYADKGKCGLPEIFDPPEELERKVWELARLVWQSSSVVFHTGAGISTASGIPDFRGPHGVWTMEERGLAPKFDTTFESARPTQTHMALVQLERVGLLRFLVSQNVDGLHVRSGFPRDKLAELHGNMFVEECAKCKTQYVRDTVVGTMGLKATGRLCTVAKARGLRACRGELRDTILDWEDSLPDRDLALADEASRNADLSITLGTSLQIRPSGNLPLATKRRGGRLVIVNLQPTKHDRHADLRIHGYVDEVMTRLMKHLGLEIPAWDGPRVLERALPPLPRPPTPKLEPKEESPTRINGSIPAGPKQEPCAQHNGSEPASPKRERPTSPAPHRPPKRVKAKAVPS
Protocol: Human recombinant SIRT6 (sequence identifier: CAG33481.1; GI:4814651) was expressed in large scale in Escherichia coli strain BL21 as a six-histidine-tagged protein, after transformation of the expression plasmid pET28-SIRT6. The SIRT6 enzyme was purified from the bacteria culture broth in a two-step strategy. The first purification step was carried out by cation exchange chromatography on a HiTrap CM-Sepharose column (GE Healthcare) using an FPLC system. The second purification step was performed by immobilized metal ion affinity chromatography (IMAC) using a cobalt affinity column (Clontech).
The enzymatic activity assay is carried out in 96 or 384-well microplates using the purified recombinant SIRT6 and a fluorophore-labeled peptide substrate: 7-amino-4-methylcoumarin (AMC) that is quenched through conjugation to the C-terminal end of a Lysin-myristoylated histone H3 peptide. The activity assay procedure requires two steps, both performed in the same microplate. In the first step, the substrate is incubated with the purified SIRT6 protein along with the co-substrate nicotinamide adenine dinucleotide (NAD+). Upon de-myristoylation, the liberated ε-amino group of the lysine becomes a trypsin substrate. Treatment with trypsin in the second step releases the fluorophore resulting in an increase in fluorescence. Fluorescence intensity is measured using a fluorescent plate reader (excitation and emission at 370 nm and 450 nm, respectively). The fluorescence signal is directly proportional to SIRT6 enzymatic activity.
In the primary screening, compounds from a library (ChemDiv Inc.) were tested at a single concentration of 20 micromolar for their potential to modulate SIRT6 enzymatic activity. The assay was carried out in 384-well black well plates and all liquid handling was done using a robotic liquid handler. Purified recombinant SIRT6 (1 micromolar) was pre-incubated with each compound (or DMSO in control wells) for 15 minutes at room temperature. The first stage of the assay was initiated by adding a ‘substrate solution’ containing the myristoylated histone H3 peptide and NAD+(for final concentrations of 25 micromolar and 20 micromolar, respectively). After one hour incubation at 37° C., a Trypsin solution (6 mg/mL) was added for 30 minutes at room temperature. Fluorescence intensity was measured using a fluorescent plate reader (Tecan) with excitation at 370 nm and emission at 450 nm. The effect of each tested compound was evaluated by the change in the fluorescence intensity compared to control wells. […] To validate the primary screening results, each of the primary “hits” was re-tested, first at concentration of 20 micromolar in duplicates and later at a serial dilution ranging from 100 to 0.2 micromolar in triplicates.

SMILES | % activity 20 uM [%]
C=C(CCOc1ccccc1)N(CCCN(C)C)C1=Nc2c(C)cccc2C1 [A] | 263
Cc1cccc2c1N=C(N(CCCN(C)C)C(=O)CCOc1ccccc1)C2 [B] | 287
C=C1Oc2cc(C[C@@H]3C[C@H](CO)[C@H](O)[C@H](C)[C@H]3O)ccc2C2=C1CCCC2 [C] | 70

same assay, conditions: Table 1; compound 100 uM; percentage of signal increase relative to control wells

SMILES | % activity Max. conc. 100 uM [%]
C=C(CCOc1ccccc1)N(CCCN(C)C)C1=Nc2c(C)cccc2C1 [A] | 255
Cc1cccc2c1N=C(N(CCCN(C)C)C(=O)CCOc1ccccc1)C2 [B] | 252
C=C1Oc2cc(C[C@@H]3C[C@H](CO)[C@H](O)[C@H](C)[C@H]3O)ccc2C2=C1CCCC2 [C] | 195

same assay, conditions: Table 2; compound 20 uM; percentage of signal increase relative to control wells

SMILES | % activity 20 uM [%]
CCc1nc(-c2ccccc2)c2cc(Cl)ccc2n1 [compound 1] | 88
C=C(Nc1ccc(Cl)cc1)N1c2ccc(OCC)cc2C(C)=CC1(C)C [compound 2] | 29
C=C(Cc1ccc2c(c1)C(C)=CC(C)(C)N2)Cc1cccc2ccccc12 [compound 4] | 29
CC1=CC(C)(C)Nc2ccc(OC(=O)c3cccs3)cc21 [compound 5] | 39
Cc1ccnc(NC(c2ccc(C)cc2C)c2ccc3cccnc3c2O)c1 (stereo not drawn) [compound 6] | 30
Cn1c(-c2ccc3[nH]c(-c4ccc(N)cc4)nc3c2)nc2cc(N)ccc21 [compound 7] | 118
CCc1nnc(NC(=O)CSc2nc(N)nc(SC)c2C#N)s1 [compound 8] | 25
C=C(CS)Nc1ccc(CCCCC)cc1 [compound 9] | 22
C=C(CN1c2ccccc2C(C)(C)C12C=Cc1c(ccc3ccccc13)C2)NC (stereo not drawn) [compound 10] | 25
C=C1N(C)C(=O)c2c(nc3n2CC(c2ccc(Br)cc2)=NN3)N1C [compound 11] | 41
Cc1nc2sc(-c3nc4ccccc4[nH]3)c(N)c2c(C)c1Cl [compound 12] | 36
O=C1Nc2ccc(Cl)cc2C(c2ccccc2)C1Nc1ccc(Oc2ccccc2)cc1 (stereo not drawn) [compound 13] | 24
N#Cc1c(N)oc(C2=CC=CC2)c1-c1ccco1 [compound 14] | 28
O=c1cc(O)c2sc3nc4c(cc3c2[nH]1)CCCCC4 [compound 15] | 37
C=C1Nc2nc(OC(C)=O)c(C)c(C)c2S1 [compound 16] | 40
COc1ccc(-c2nn3c(C)nnc3s2)cc1N [compound 17] | 21
CC1=NCC(c2ccc(O)cc2O)=C1c1ccc(Cl)cc1 [compound 18] | 53
C=C(OC(C)CC)C1=C(C)NC2=C(C(=C)C(C(=C)OC)C(C)C2)C1c1ccc(N(CC)CC)cc1 (stereo not drawn) [compound 19] | 37
COc1ccc(-c2csc3c(NN)ncnc23)cc1 [compound 20] | 78
C=S(=C)(c1cc(Cl)ccc1Cl)n1c(/C=C/c2ccc(SC)cc2)nc2ccccc21 [compound 21] | 38
CCN1CCCC1CNC(=O)C1CCN(c2cc(C)nc3c(-c4ccc(Cl)cc4)c(C)nn23)CC1 (stereo not drawn) [compound 22] | 32
Cc1ccccc1CSc1ncc(Sc2ccccc2)c(C(=O)NCc2ccccc2)n1 [compound 23] | 55
Cc1cc(NC(=O)CSc2nnc(-c3sc4ncccc4c3N)n2C)ccc1Cl [compound 24] | 77
Cc1cc(Nc2ccc(NC(=O)Nc3ccc4c(c3)CCCO4)cc2)nc(NC2CCCCC2)n1 [compound 25] | 26

same assay, conditions: Table 2; compound 100 uM; percentage of signal increase relative to control wells

SMILES | % activity 100 uM [%]
CCc1nc(-c2ccccc2)c2cc(Cl)ccc2n1 [compound 1] | 428
C=C(Nc1ccc(Cl)cc1)N1c2ccc(OCC)cc2C(C)=CC1(C)C [compound 2] | 46
C=C(Cc1ccc2c(c1)C(C)=CC(C)(C)N2)Cc1cccc2ccccc12 [compound 4] | 56
CC1=CC(C)(C)Nc2ccc(OC(=O)c3cccs3)cc21 [compound 5] | 54
Cc1ccnc(NC(c2ccc(C)cc2C)c2ccc3cccnc3c2O)c1 (stereo not drawn) [compound 6] | 28
Cn1c(-c2ccc3[nH]c(-c4ccc(N)cc4)nc3c2)nc2cc(N)ccc21 [compound 7] | 162
CCc1nnc(NC(=O)CSc2nc(N)nc(SC)c2C#N)s1 [compound 8] | 25
C=C(CS)Nc1ccc(CCCCC)cc1 [compound 9] | 48
C=C(CN1c2ccccc2C(C)(C)C12C=Cc1c(ccc3ccccc13)C2)NC (stereo not drawn) [compound 10] | 27
C=C1N(C)C(=O)c2c(nc3n2CC(c2ccc(Br)cc2)=NN3)N1C [compound 11] | 99
Cc1nc2sc(-c3nc4ccccc4[nH]3)c(N)c2c(C)c1Cl [compound 12] | 59
O=C1Nc2ccc(Cl)cc2C(c2ccccc2)C1Nc1ccc(Oc2ccccc2)cc1 (stereo not drawn) [compound 13] | 86
N#Cc1c(N)oc(C2=CC=CC2)c1-c1ccco1 [compound 14] | 48
O=c1cc(O)c2sc3nc4c(cc3c2[nH]1)CCCCC4 [compound 15] | 75
C=C1Nc2nc(OC(C)=O)c(C)c(C)c2S1 [compound 16] | 197
COc1ccc(-c2nn3c(C)nnc3s2)cc1N [compound 17] | 18
CC1=NCC(c2ccc(O)cc2O)=C1c1ccc(Cl)cc1 [compound 18] | 94
C=C(OC(C)CC)C1=C(C)NC2=C(C(=C)C(C(=C)OC)C(C)C2)C1c1ccc(N(CC)CC)cc1 (stereo not drawn) [compound 19] | 61
COc1ccc(-c2csc3c(NN)ncnc23)cc1 [compound 20] | 22
C=S(=C)(c1cc(Cl)ccc1Cl)n1c(/C=C/c2ccc(SC)cc2)nc2ccccc21 [compound 21] | 36
CCN1CCCC1CNC(=O)C1CCN(c2cc(C)nc3c(-c4ccc(Cl)cc4)c(C)nn23)CC1 (stereo not drawn) [compound 22] | 29
Cc1ccccc1CSc1ncc(Sc2ccccc2)c(C(=O)NCc2ccccc2)n1 [compound 23] | 65
Cc1cc(NC(=O)CSc2nnc(-c3sc4ncccc4c3N)n2C)ccc1Cl [compound 24] | 47
Cc1cc(Nc2ccc(NC(=O)Nc3ccc4c(c3)CCCO4)cc2)nc(NC2CCCCC2)n1 [compound 25] | 22
